The record followed here is patent publication US11345694B2, “Antibacterial compounds” (DISCUVA LTD., priority 2017, dated 2022).

The subject of test [1] is E. coli NCTC 13441 (UPEC). The test is described as follows: MIC broth microdilution. In kind it is cell-based, Escherichia coli. The following applies: Escherichia coli, NCTC13441. A digest of the protocol:
(§1)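 Read-out is visible growth: the MIC is the lowest compound concentration that prevents it after incubating 20-24 hours at 37° C in air. Compounds span 0.39-200 μM final (two-fold steps, up to 2% DMSO) in cation-adjusted Müller-Hinton broth, following CLSI guidelines for planktonic bacteria.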
A general note: Broth dilution looks for growth in wells or tubes with falling amounts of substance.

In test [2] the test system is Enterobacter cloacae DSM 30054 (Ed). The test can be described thus: MIC broth microdilution. The test is classed as cell-based. Conditions: DSM30054. A digest of the protocol: (§2)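 Growth inhibition read after 20-24 hour incubation at 37° C in ambient atmosphere; MIC is the lowest compound concentration with no growth. Planktonic bacteria in cation-adjusted Müller-Hinton broth were exposed to two-fold dilutions (0.39-200 μM final; ≤2% DMSO final) per CLSI guidelines.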

In test [3] the test system is Staphylococcus aureus ATCC 35556 (SA). The test can be described thus: MIC broth microdilution. The test is classed as cell-based. Conditions: ATCC35556. In outline:
as §1

Test [4] has as its system Klebsiella pneumoniae ATCC 10031 (KP2). The test is described as follows: MIC broth microdilution. The test is classed as cell-based. Conditions: ATCC10031. In outline:
as §2

In test [5] the test system is Pseudomonas aeruginosa ATCC 33359 (PA). The test is described as follows: MIC broth microdilution. In kind it is cell-based. Conditions: ATCC33359. A digest of the protocol:
as §1

In test [6] the test system is Salmonella typhimurium XNAA5 (St). The test can be described thus: MIC broth microdilution. The test is classed as cell-based. The following applies: Salmonella enterica. In outline:
as §1

Test [7] relates to Serratia marcescens SL1344 (Sm). The test can be described thus: MIC broth microdilution. In kind it is cell-based. In outline:
as §1

The subject of test [8] is Acinetobacter baumannii ATCC 17978 (AB). The test is described as follows: MIC broth microdilution. The test is classed as cell-based. The following applies: ATCC17978. A digest of the protocol:
as §1

Test [9] has as its system Escherichia coli K12 (EC). The test is described as follows: MIC broth microdilution. The test is classed as cell-based. A digest of the protocol:
as §1

For test [10], the system named is human hepatocarcinoma cell line ATCC HB-8065 (HepG2). The test can be described thus: Human cell viability (CellTiter-Glo). In kind it is cell-based. The following applies: Homo sapiens; HepG2 cells, 24 h incubation, CellTiter-Glo luminescence, 0.2-100 μM; read-out: IC50 values against the HepG2 cell line. In outline: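 HepG2 cells were seeded at 20,000 cells/well in MEM with 10% FBS and, after 24 h, exposed for 24 h at 37° C. to two-fold dilutions (final 0.2-100 μM) in MEM with 1% FBS and 1% DMSO. Viability was read by CellTiter-Glo luminescence, with IC50 from a 4-parameter logistic fit.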
(In general: In ATP-based viability assays light output follows the ATP content of the culture.)

The test system of test [11] is K. pneumoniae H154680676 (KP5). The test is described as follows: MIC broth microdilution. The following applies: Klebsiella pneumoniae. In kind it is cell-based, Klebsiella pneumoniae. A digest of the protocol: as §2
For test [12], the system named is K. pneumoniae H154600588 (KP8). The test can be described thus: MIC broth microdilution. The test is classed as cell-based, Klebsiella pneumoniae. The following applies: Klebsiella pneumoniae. In outline:
as §2

Test [13] has as its system K. pneumoniae H151440671 (KP10). The test can be described thus: MIC broth microdilution. In kind it is cell-based, Klebsiella pneumoniae. Conditions: Klebsiella pneumoniae. A digest of the protocol: as §2
Test [14] concerns K. pneumoniae ATCC 700603 (KP3). The test can be described thus: MIC broth microdilution. The following applies: Klebsiella pneumoniae, ATCC700603. The test is classed as cell-based, Klebsiella pneumoniae. A digest of the protocol:
as §2

For test [15], the system named is K. pneumoniae H154020667 (KP6). The test is described as follows: MIC broth microdilution. In kind it is cell-based, Klebsiella pneumoniae. The following applies: Klebsiella pneumoniae. A digest of the protocol:
as §2

Test [16] relates to K. pneumoniae H154300688 (KP9). The test can be described thus: MIC broth microdilution. In kind it is cell-based, Klebsiella pneumoniae. The following applies: Klebsiella pneumoniae. In outline:
as §2

For test [17], the system named is K. pneumoniae NCTC 13438 (KP1). The test can be described thus: MIC broth microdilution. In kind it is cell-based, Klebsiella pneumoniae. The following applies: Klebsiella pneumoniae, NCTC13438. In outline:
as §2

The subject of test [18] is K. pneumoniae H154640784 (KP7). The test is described as follows: MIC broth microdilution. The test is classed as cell-based, Klebsiella pneumoniae. Conditions: Klebsiella pneumoniae. In outline: as §2

Values after ≈ are worked out from the molar mass of the structure shown.

One may read the MIC as the smallest concentration in the dilution series that meets the test's criterion for growth inhibition. Broadly, the IC50 is the concentration needed to halve the response being measured. `CNc1cc(-c2[nH]c(N)nc2-c2ccc3c(c2)CCO3)ccn1` [Example 9, 4-(2-Amino-4-(2,3-dihydrobenzofuran-5-yl)-1H-imidazol-5-yl)-N-methylpyridin-2-amine]: the MIC in [1] is not above 1 µM; in [2], not above 1 µM; in [3], more than 100 µM; in [4] it was not above 1 µM; in test [5], more than 100 µM; in [6], not above 1 µM. The MIC is 10 to 100 µM (≈ 3.07 to 30.7 µg/mL) in [7]; more than 100 µM in test [8]; not above 1 µM in test [9]; 1 to 10 µM (≈ 0.307 to 3.07 µg/mL) in test [11]; 1 to 10 µM (≈ 0.307 to 3.07 µg/mL) in test [12]; not above 1 µM in [13]. For the same compound, the MIC in test [14] is 1 to 10 µM (≈ 0.307 to 3.07 µg/mL); in test [15] it was not above 1 µM; in test [16] it was 1 to 10 µM (≈ 0.307 to 3.07 µg/mL); in [17] it was 1 to 10 µM (≈ 0.307 to 3.07 µg/mL); in test [18], 1 to 10 µM (≈ 0.307 to 3.07 µg/mL). Also, the IC50 in test [10] is more than 100 µM.

As to `Cc1cc(-c2nc(N)[nH]c2-c2ccc(OCc3ccc(F)cc3)c(F)c2)ccn1` [Example 16, 5-(3-Fluoro-4-((4-fluorobenzyl)oxy)phenyl)-4-(2-methylpyridin-4-yl)-1H-imidazol-2-amine], the MIC was not above 1 µM in test [1]; not above 1 µM in [2]; more than 100 µM in test [3]; not above 1 µM in [4]; more than 100 µM in test [5]; not above 1 µM in test [6]. The MIC in test [7] is not above 1 µM; in test [8], more than 100 µM; in [9] it was not above 1 µM; in [11], not above 1 µM; in test [12], not above 1 µM; in test [13], not above 1 µM. For the same compound, the MIC in test [14], in [15], in [16], in test [17] and in test [18] was not above 1 µM throughout. Also, in test [10], the IC50 was in the range of 25 to 100 µM.

With `Cc1cc(-c2[nH]c(N)nc2-c2ccc(OCc3ccc(F)cc3)cc2)ccn1` [Example 19, 4-(4-((4-Fluorobenzyl)oxy)phenyl)-5-(2-methylpyridin-4-yl)-1H-imidazol-2-amine], the MIC in [1] was not above 1 µM; in test [2], not above 1 µM; in test [3], 10 to 100 µM (≈ 3.74 to 37.4 µg/mL); in test [4] it was not above 1 µM; in test [5] it was more than 100 µM; in test [6], not above 1 µM. The MIC was not above 1 µM in test [7]; 10 to 100 µM (≈ 3.74 to 37.4 µg/mL) in test [8]; not above 1 µM in test [9]; not above 1 µM in [11]; 1 to 10 µM (≈ 0.374 to 3.74 µg/mL) in test [12]; not above 1 µM in test [13]. Moreover, the minimum inhibitory concentration (MIC) was not above 1 µM in [14]; not above 1 µM in [15]; not above 1 µM in [16]; not above 1 µM in test [17]; 1 to 10 µM (≈ 0.374 to 3.74 µg/mL) in test [18]. Moreover, the IC50 in [10] was in the range of 25 to 100 µM.

Take `Cc1cc(-c2[nH]c(N)nc2-c2ccc3c(c2)OCCO3)ccn1` [Example 23, 4-(2,3-Dihydrobenzo[b][1,4]dioxin-6-yl)-5-(2-methylpyridin-4-yl)-1H-imidazol-2-amine]: the MIC is not above 1 µM in [1]; not above 1 µM in test [2]; more than 100 µM in test [3]; not above 1 µM in [4]; more than 100 µM in [5]; not above 1 µM in test [6]. The MIC was 1 to 10 µM (≈ 0.308 to 3.08 µg/mL) in [7]; more than 100 µM in test [8]; not above 1 µM in test [9]; not above 1 µM in test [11]; 1 to 10 µM (≈ 0.308 to 3.08 µg/mL) in test [12]; not above 1 µM in [13]. The minimum inhibitory concentration (MIC) in test [14] was 1 to 10 µM (≈ 0.308 to 3.08 µg/mL); in [15], not above 1 µM; in [16], not above 1 µM; in test [17] it was 1 to 10 µM (≈ 0.308 to 3.08 µg/mL); in test [18], 1 to 10 µM (≈ 0.308 to 3.08 µg/mL). In addition, in test [10], the IC50 is more than 100 µM.

Consider `Cc1cc(-c2[nH]c(N)nc2-c2ccc3c(c2)NCCO3)ccn1` [Example 27, 4-(3,4-Dihydro-2H-benzo[b][1,4]oxazin-6-yl)-5-(2-methylpyridin-4-yl)-1H-imidazol-2-amine], for which the MIC in test [1] is not above 1 µM; in [2], not above 1 µM; in test [3], more than 100 µM; in test [4], not above 1 µM; in [5] it was more than 100 µM; in test [6] it was not above 1 µM. Moreover, the MIC is 1 to 10 µM (≈ 0.307 to 3.07 µg/mL) in [7]; more than 100 µM in [8]; not above 1 µM in test [9]; not above 1 µM in test [11]; 1 to 10 µM (≈ 0.307 to 3.07 µg/mL) in [12]; not above 1 µM in test [13]. The MIC in [14] is 1 to 10 µM (≈ 0.307 to 3.07 µg/mL); in test [15] it was not above 1 µM; in test [16], 1 to 10 µM (≈ 0.307 to 3.07 µg/mL); in test [17], 1 to 10 µM (≈ 0.307 to 3.07 µg/mL); in test [18], 1 to 10 µM (≈ 0.307 to 3.07 µg/mL). Further, in test [10], the half-inhibitory concentration (IC50) is more than 100 µM.

As for `Cc1cc(-c2[nH]c(N)nc2-c2ccc(OCc3ccc(F)cc3)nc2)ccn1` [Example 28, 4-(6-((4-Fluorobenzyl)oxy)pyridin-3-yl)-5-(2-methylpyridin-4-yl)-1H-imidazol-2-amine], the MIC is not above 1 µM in test [1]; not above 1 µM in [2]; more than 100 µM in test [3]; not above 1 µM in test [4]; more than 100 µM in test [5]; not above 1 µM in test [6]. The MIC in test [7] is not above 1 µM; in test [8], more than 100 µM; in [9], not above 1 µM; in test [11], not above 1 µM; in test [12] it was 1 to 10 µM (≈ 0.375 to 3.75 µg/mL); in test [13] it was not above 1 µM. Moreover, the MIC was 1 to 10 µM (≈ 0.375 to 3.75 µg/mL) in test [14]; not above 1 µM in test [15]; not above 1 µM in [16]; 1 to 10 µM (≈ 0.375 to 3.75 µg/mL) in test [17]; 1 to 10 µM (≈ 0.375 to 3.75 µg/mL) in test [18]. Moreover, the 50% inhibitory concentration (IC50) in [10] was 25 to 100 µM.
